This is an account of results in patent US4462991A, “Method of increasing oral absorption of polar bioactive agents” (INTERx Research Corp., priority 1982, dated 1984).

The nature of this series: Percent bioavailability after intraduodenal injection in anesthetized rats, (AUC)0-90 min relative to i.v. The settings on record: male, Sprague-Dawley, rat, in vivo, other: intraduodenal injection, 2.5 mg per animal, pH 5, Control (no adjuvant), intraduodenal injection 0.25 ml, drug 10 mg/ml, pH 5, ionic strength 0.3, AUC 0-90 min vs i.v., read-out: Percent Bioavailability (% BA). On the procedure: The following tests were run showing Percent Bioavailability (% BA)
The above tests were done according to the following protocol:
Animals: Male Sprague-Dawley rats (200-250 g)
Anesthesia: Ethyl carbamate by i.m. injection
Blood 0.6 ml from external jugular vein at
(AUC)o^90 calculated from summation
For the oral test an intraduodenal injection 1.0 cm distal to the pylorus was done . The volume of the injection was 0.25 ml at 0.3 ionic strength (adjusted with sodium chloride) and a pH of 5.
The drug was administered at 10 mg/ml unless otherwise noted and the adjuvant at 20 mg/ml unless otherwise noted.
The (AUC)i.v. was determined for each drug, based on the mean value from 3-6 animals.

Broadly, the bioavailability is dose-corrected exposure relative to a reference, in per cent. For `CC(C)[C@@H]1NC(=O)[C@H](CCCCN)NC(=O)[C@@H](Cc2c[nH]c3ccccc23)NC(=O)[C@H](Cc2ccc(O)cc2)NC(=O)[C@H](C)N(C)C(=O)[C@H](Cc2ccccc2)NC1=O` [Cyclo-(N-Me-Ala-Tyr-D-Trp-Lys-Val-Phe)], the bioavailability worked out at 1%.
